From US20060276385A1, “Anti-inflammatory agents and methods of their use” (priority 2003, published 2006)
Residues, ends and D or L forms follow the SMILES beside them. *: point of attachment. Cbz = O=C(OCc1ccccc1)*

Legend:
ICAM-1 = ICAM-1 surface expression by FACS analysis in HAEC; format: cell-based, human; settings: for BMP4-induced ICAM-1 expression in presence of ROS scavenger: HAEC transfected with BMP4; for effect on OS-induced ICAM-1 expression: HAEC exposed to OS 1 day, PEG-catalase or Tiron included during shear
Procedure: (§1) Endothelial cells: Mouse aortic endothelial cells (MAEC) were cultured and used at passages 4-8 as described (Cai, H., et al. (2002) J Bio Chem 107, 48311-48317). Human aortic endothelial cells (HAEC) purchased from Clonetics were cultured using EGM-2 bullet kit (Clonetics) and used at passages 4-8. Alternatively, endothelial cells obtained from the thoracic aortas of C57/BL6 control (MAE-wt) and p47^phox-null mice (MAE-p47^−/−) were isolated and cultured as described previously (Hwang, J. et al. (2003) J Biol Chem 278:47291-8), and used between passages 4-10.
(§2) Shear stress studies: Confluent endothelial monolayers grown in 100 mm tissue culture dishes were exposed to an arterial level of uni-directional LS (15 dyn/cm^2) in the growth medium by rotating a Teflon cone (0.5° cone angle) as described previously. To mimic unstable shear conditions in vivo, endothelial cells were exposed to OS with directional changes of flow at 1 Hz cycle (±5 dyn/cm^2) by rotating the cone back-and-forth using a stepping motor (Servo Motor) and a computer program (DC Motor Company, Atlanta, Ga.). In some studies, 5 dyn/cm^2 unidirectional LS was used for comparison to OS (±5 dyn/cm^2).
(§3) Fluorescence activated cytometry sorting (FACS) analysis: Treated cells were dissociated into single cell suspensions using 0.25% trypsin-EDTA and resuspended in a FACS buffer (Hank's buffered solution containing 5% FBS). Aliquots of cell suspensions were incubated with ICAM-1 antibody (R&D Systems) for 20 min on ice, washed twice with FACS buffer, and incubated with secondary antibody (fluorescein-5-isothiocyanate- or phycoerytherin-conjugated, Chemicon) for 20 min on ice in the dark. Then samples were washed again, fixed in 1% paraformaldehyde and analyzed by FACS (Calibur, Becton-Dickinson) using CellQuest software. The fluorescence intensity of ICAM-1 and forward cell scattering of 30,000 cells were measured and the geometric means calculated from histograms were shown. In some studies, HAEC were transfected with either BMP4 cloned in a bi-cistronic pAdTrack CMV vector or an empty vector, both expressing green fluorescent protein (GFP), using Lipofectamine 2000. In these experiments, ICAM-1 expression was measured in the red phycoerytherin channel, while the green channel was used to monitor the […] expression-GFP expression was determined by FACS analysis and fluorescence microscopy (20-30% transfection efficiency). Because expression of GFP was similar among different treatment groups within the same experiment, it was unnecessary to normalize ICAM-1 expression data to GFP level. Human recombinant noggin was purchased from R&D Systems and used in all experiments at 50 ng/ml (Dale, L., and Jones, C. M. (1999) Bioessays 21, 751-760; Zimmerman, L. B., et al. (1996) Cell 86, 599-606; Brunei, L. J., et al. (1998) Science 280, 1455-1457).

MAEC = experiment: Monocyte adhesion: THP-1 monocytes bound to mouse aortic endothelial cells; format: cell-based; settings: for effect on BMP4-induced monocyte adhesion: MAE-wt, BMP4 20 ng/ml 18 hrs, YN1 5 μg/ml last 30 min, PEG-catalase 100 U/ml 18 hrs or Tiron 10 μmol/L 1 hr pre-incubation
Procedure: as §1, §2
(§4) Monocyte Adhesion: Monocyte binding was determined under no-flow conditions using THP-1 monocytes (ATCC) by the method described by Chappel et al (Chappell, D. C., et al. (1998) Circ Res 82, 532-539). Briefly, THP-1 cells (5×10^5 cells/ml) were labeled with a fluorescent dye 2′,7′-bis(carboxyethyl)-5(6)-carboxyfluorescein-AM (BCECF, Molecular Probes) (1 mg/ml) in serum-free RPMI medium for 45 min at 37° C. Following exposure to shear stress or BMP treatments in the presence or absence of noggin or vehicle, the endothelial cells were washed in RPMI medium before adding BCECF-loaded THP-1 cells (1:1 ratio). After a 30 min incubation at 37° C. under no-flow conditions, unbound monocytes were removed by washing the endothelial dishes 5 times with Hank's PBS. Bound monocytes were quantified by either counting the cells under a fluorescent microscope or by measuring the fluorescent intensity of cell lysates by fluorescence spectrophotometry using a plate reader. […] Some studies were performed with MAEC pretreated with 5 μg/ml of mouse-ICAM1 antibody (YN1, Southern Biolechonology) (Kevil, C. G., et al. (2001) Am J Physiol Cell Physiol 281, C1442-1447).
In FIG. 7B, confluent MAE-wt cells were pre-incubated with cell-permeable PEG-catalase (Catalase, 100 U/ml for 18 hrs) or Tiron (10 μmol/L for 1 hr). Cells were then incubated with 20 ng/ml BMP4 or vehicle for additional 18 hrs. The treated cells in 7A and 7B were washed, and fluorescently-labeled THP-1 monocytes were added. Unbound THP-1 cells were washed after 30 min, and bound monocytes were counted with a fluorescence microscope using a 10× objective (5-10 different fields per dish). […] As a positive control, monocyte binding was determined using MAE-wt treated with TNF-α(100 U/ml for 2hrs).

MAE-p47−/− cells = experiment: Monocyte adhesion to p47phox-null endothelial cells, with or without p47phox transfection; format: cell-based, mouse; settings: MAE-p47−/− cells transfected with p47phox (rescued); BMP4 20 ng/ml or TNF-α 100 U/ml, 18 hrs
Procedure: as §1, §4
Transfection of p47phox: In some studies MAE-p47^−/− cells were trasnfected withp47phox expression vector or an empty vector as described (Hwang, J. et al. (2003) J Biol Chem278-47291-8).
Next, monocyte adhesion was determined in these cells. […] After 18 hrs, cells were washed and monocyte binding was determined as described in FIG. 7. […]

E-selectin = E-selectin surface expression by FACS analysis in HAEC; format: cell-based, human; settings: TNF-α 100 U/ml for 2 hr as positive control
Procedure: Fluorescence activated cytometry sorting (FACS) analysis: Treated cells were dissociated into single cell suspensions using 0.25% trypsin-EDTA and resuspended in a FACS buffer (Hank's buffered solution containing 5% FBS). Aliquots of cell suspensions were incubated with ICAM-1 antibody (R&D Systems) for 20 min on ice, washed twice with FACS buffer, and incubated with secondary antibody (fluorescein-5-isothiocyanate- or phycoerytherin-conjugated, Chemicon) for 20 min on ice in the dark. Then samples were washed again, fixed in 1% paraformaldehyde and analyzed by FACS (Calibur, Becton-Dickinson) using CellQuest software. The fluorescence intensity of ICAM-1 and forward cell scattering of 30,000 cells were measured and the geometric means calculated from histograms were shown. […] In these experiments, ICAM-1 expression was measured in the red phycoerytherin channel, while the green channel was used to monitor the […] expression-GFP expression was determined by FACS analysis and fluorescence microscopy (20-30% transfection efficiency). […]
(§5) HAEC treated with OS, BMP4 or static condition were analyzed by FACS using antibodies specific to VCAM-1 (C) and E-selectin (D) as described in panel A using TNFa (1OOU/ml, for 2 hr) as a positive control.

VCAM-1 = VCAM-1 expression in endothelial cells; format: cell-based, human; settings: HAEC, FACS; TNF-α 100 U/ml for 2 hr as positive control
Procedure: as §3, §5

MAE-wt cells [1] = experiment: O2− assay by electron spin resonance spectroscopy with CMH spin probe; format: cell-based, mouse; settings: MAE-wt exposed to OS for 1 day, noggin during OS exposure
Procedure: O2^− Assay: O2^− production was determined by electron spin resonance spectroscopy using methoxycarbonyl-2,2,5,5-tetramethyl-pyrrolidine (CMH) as a spin probe in the presence or absence of PEG-superoxide dismutase (PEG-SOD; 50 U/ml) to quantify the SOD-inhibitable portions of CM.
In FIG. 10A immediately following treatment of MAE wt cells with BMP4 (200 ng/ml) for 18 hrs, cells were trypsinized and reconstituted in Krebs-Hepes buffer. Equal number of cells was incubated with a spin trap CMH in the presence or absence of PEG-SOD (50 U/mL). The specific O2^− production was calculated by subtracting SOD-inhibitable portions from total O2^− production as determined by following CM production (mean±SEM, n=3, *p<0.05).

MAE-wt cells [2] = experiment: H2O2 assay by oxidation of DCF-DA; format: cell-based, mouse; settings: PEG-catalase 100 U/ml for 1 day before and during BMP4 treatment
Procedure: H2O2 assay: Cells grown in 6-well plates were treated with BMP4 or vehicle control for 18 hrs in the presence or absence of cell-permeable polyethylene glycol (PEG)-catalase (100 U/ml). Cells were then washed once with Hepes buffered saline solution (HBSS) followed by incubation with 7.5 μg/ml 2′, 7′-dichlorofluorescein diacetate (DCF-DA, Molecular Probes) in HBSS for 1 hr at 37 C° in the dark. Cells were washed with HBSS, incubated further for an additional 40 min in HBSS, and the DCF fluorescence intensities were measured in a Cytofluor Multi-Well plate reader (excitation at 475 nm and emission at 525 nm).
In addition, BMP4 stimulated production of H2O2 by 70% above control as determined by oxidation of DCF-DA (FIG. 10B). […] The cells were washed, incubated with DCF-DA, and the fluorescent intensities determined by fluorometry. Shown is a mean±SEM (n=3, p<0.05). In this assay, a redox cycling menadione (10 μM) was used as positive control (data not shown).

CC(C)C[C@@H](C=O)NC(=O)[C@H](CC(C)C)NC(=O)[C@H](CC(C)C)NC(=O)OCc1ccccc1 [MG132, reference compound] (Cbz-Leu-Leu-Leu-aldehyde)
effect on ICAM-1 expression induced by BMP4 (ICAM-1; HAEC, in the presence of NF-κB translocation inhibitor, inactive peptide or proteosome inhibitor): completely prevented

CC(=O)N[C@@H](CS)C(=O)O [N-Acetyl-cysteine, reference compound]
BMP4-induced ICAM-1 expression in presence of ROS scavenger (ICAM-1): 23 % of control

O=S(=O)(O)c1cc(O)c(O)c(S(=O)(=O)O)c1 [Tiron, reference compound]
effect on BMP4-induced monocyte adhesion (MAEC): completely blocked
effect on OS-induced ICAM-1 expression (ICAM-1; noggin 50 ng/ml): completely prevented

TNF-α [reference compound]
ICAM-1 expression above control cells (ICAM-1; HAEC, TNF-α 100 U/ml for 2 hr): 4 to 5 fold
increase in monocyte adhesion above the control (MAE-p47−/− cells): approximately 4 fold
effect on surface expression of E-selectin (E-selectin): strongly increased
effect on surface expression of VCAM-1 (VCAM-1): strongly increased

B1: noggin (protein, UniProt Q13253 28-232, looked up)
Noggin: QHYLHIRPAPSDNLPLVDLIEHPDPIFDPKEKDLNETLLRSLLGGHYDPGFMATSPPEDRPGGGGGAAGGAEDLAELDQLLRQRPSGAMPSEIKGLEFSEGLAQGKKQRLSKKLRRKLQMWLWSQTFCPVLYAWNDLGSRFWPRYVKVGSCFSKRSCSVPEGMVCKPSKSVHLTVLRWRCQRRGGQRCGWIPIQYPIISECKCSC
notes: natural BMP antagonist
effect on OS-induced monocyte adhesion (MAEC; MAEC, OS 24 hr, noggin 50 ng/ml): inhibited OS-induced monocyte adhesion
effect on OS-induced ICAM-1 expression (ICAM-1; noggin 50 ng/ml): completely inhibited
effect on TNF-α-induced ICAM-1 expression (ICAM-1; HAEC, TNF-α 100 U/ml for 6 hr, noggin 50 ng/ml): did not affect
effect on OS-induced O2− increase (MAE-wt cells [1]): virtually blocked

B2: PEG-catalase: cell-permeable polyethylene glycol-catalase converting H2O2 to H2O, 100 U/ml (protein, UniProt P00432 2-527, looked up)
Catalase: ADNRDPASDQMKHWKEQRAAQKPDVLTTGGGNPVGDKLNSLTVGPRGPLLVQDVVFTDEMAHFDRERIPERVVHAKGAGAFGYFEVTHDITRYSKAKVFEHIGKRTPIAVRFSTVAGESGSADTVRDPRGFAVKFYTEDGNWDLVGNNTPIFFIRDALLFPSFIHSQKRNPQTHLKDPDMVWDFWSLRPESLHQVSFLFSDRGIPDGHRHMNGYGSHTFKLVNANGEAVYCKFHYKTDQGIKNLSVEDAARLAHEDPDYGLRDLFNAIATGNYPSWTLYIQVMTFSEAEIFPFNPFDLTKVWPHGDYPLIPVGKLVLNRNPVNYFAEVEQLAFDPSNMPPGIEPSPDKMLQGRLFAYPDTHRHRLGPNYLQIPVNCPYRARVANYQRDGPMCMMDNQGGAPNYYPNSFSAPEHQPSALEHRTHFSGDVQRFNSANDDNVTQVRTFYLKVLNEEQRKRLCENIAGHLKDAQLFIQKKAVKNFSDVHPEYGSRIQALLDKYNEEKPKNAVHTYVQHGSHLSAREKANL
modifications: PEG conjugated
notes: cell-permeable polyethylene glycol-catalase converting H2O2 to H2O, 100 U/ml
effect on BMP4-induced monocyte adhesion (MAEC): completely blocked
effect on OS-induced ICAM-1 expression (ICAM-1; noggin 50 ng/ml): completely prevented
BMP4-induced ICAM-1 expression in presence of ROS scavenger (ICAM-1): 26 % of control
effect on BMP-dependent H2O2 production (MAE-wt cells [2]): completely blocked
